Measured values taken from PubChem BioAssay (NCI).
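GI50 = concentration required for 50% inhibition of growth. At the TGI there is no net growth.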

Experiments:
Experiment in all cases: DTP human tumour cell line panel, 384-well format
MDA-MB-468 breast = tested on: MDA-MB-468 breast
UACC-257 melanoma = tested on: UACC-257 melanoma
A549 NSCLC = tested on: A549 NSCLC
CCRF-CEM leukemia = tested on: CCRF-CEM leukemia
A498 renal = tested on: A498 renal
MALME-3M melanoma = tested on: MALME-3M melanoma
SF-295 CNS = tested on: SF-295 CNS
SNB-75 CNS = tested on: SNB-75 CNS
K-562 leukemia = tested on: K-562 leukemia
MDA-MB-231 breast = tested on: MDA-MB-231 breast
HCT-116 colon = tested on: HCT-116 colon
PC-3 prostate = tested on: PC-3 prostate
CAKI-1 renal = tested on: CAKI-1 renal

C[C@@H](Nc1nc(N[C@H](C)C(F)(F)F)nc(-c2cccc(Cl)n2)n1)C(F)(F)F
GI50 (MDA-MB-468 breast): 20.9 µM
TGI (MDA-MB-468 breast): > 90.2 µM
GI50 (UACC-257 melanoma): 98.4 µM
TGI (UACC-257 melanoma): > 100 µM
GI50 (A549 NSCLC): > 51.8 µM
TGI (A549 NSCLC): > 83 µM
GI50 (CCRF-CEM leukemia): > 100 µM
TGI (CCRF-CEM leukemia): > 100 µM
GI50 (A498 renal): 32.9 µM
TGI (A498 renal): > 72.4 µM
GI50 (MALME-3M melanoma): > 66 µM
TGI (MALME-3M melanoma): > 100 µM
GI50 (SF-295 CNS): > 83.8 µM
TGI (SF-295 CNS): > 100 µM
GI50 (SNB-75 CNS): 29.5 µM
TGI (SNB-75 CNS): > 75.4 µM
GI50 (K-562 leukemia): > 100 µM
TGI (K-562 leukemia): > 100 µM
GI50 (MDA-MB-231 breast): 27.9 µM
TGI (MDA-MB-231 breast): > 83.3 µM
GI50 (HCT-116 colon): 89.3 µM
TGI (HCT-116 colon): > 100 µM
GI50 (PC-3 prostate): > 51.1 µM
TGI (PC-3 prostate): > 80.9 µM
GI50 (CAKI-1 renal): 33.6 µM
TGI (CAKI-1 renal): > 73.8 µM

Cc1cc(F)c(C(=O)Nc2cccc(-c3nncn3C(C)C)n2)cc1-n1cnc(C2CC2)c1
GI50 (MDA-MB-468 breast): 3.39 µM
TGI (MDA-MB-468 breast): 10.5 µM
GI50 (UACC-257 melanoma): 16.7 µM
TGI (UACC-257 melanoma): 31.2 µM
GI50 (A549 NSCLC): 8.05 µM
TGI (A549 NSCLC): 66.6 µM
GI50 (CCRF-CEM leukemia): 7.73 µM
TGI (CCRF-CEM leukemia): 20.2 µM
GI50 (A498 renal): 10.1 µM
TGI (A498 renal): > 76.6 µM
GI50 (MALME-3M melanoma): 15.2 µM
TGI (MALME-3M melanoma): 35 µM
GI50 (SF-295 CNS): 15.4 µM
TGI (SF-295 CNS): 98.9 µM
GI50 (SNB-75 CNS): 13.5 µM
TGI (SNB-75 CNS): 27.6 µM
GI50 (K-562 leukemia): 5.52 µM
TGI (K-562 leukemia): 21.3 µM
GI50 (MDA-MB-231 breast): 15.3 µM
TGI (MDA-MB-231 breast): > 85.9 µM
GI50 (HCT-116 colon): 17.6 µM
TGI (HCT-116 colon): 71.1 µM
GI50 (PC-3 prostate): 15.5 µM
TGI (PC-3 prostate): 30.2 µM
GI50 (CAKI-1 renal): 12.6 µM
TGI (CAKI-1 renal): 31.4 µM
